Measurements taken from PubChem BioAssay AID588635 (Johns Hopkins Ion Channel Center, 2011).

Target: Potassium voltage-gated channel subfamily KQT member 2 (Rattus norvegicus) (UniProt O88943)
Assay: PubChem AID 588635
Conditions: KCNQ2-CHO cells, manual whole-cell patch clamp current; at 0.1 µM; active compounds read high

Sequence of Potassium voltage-gated channel subfamily KQT member 2 (Rattus norvegicus) (O88943 whole entry, looked up): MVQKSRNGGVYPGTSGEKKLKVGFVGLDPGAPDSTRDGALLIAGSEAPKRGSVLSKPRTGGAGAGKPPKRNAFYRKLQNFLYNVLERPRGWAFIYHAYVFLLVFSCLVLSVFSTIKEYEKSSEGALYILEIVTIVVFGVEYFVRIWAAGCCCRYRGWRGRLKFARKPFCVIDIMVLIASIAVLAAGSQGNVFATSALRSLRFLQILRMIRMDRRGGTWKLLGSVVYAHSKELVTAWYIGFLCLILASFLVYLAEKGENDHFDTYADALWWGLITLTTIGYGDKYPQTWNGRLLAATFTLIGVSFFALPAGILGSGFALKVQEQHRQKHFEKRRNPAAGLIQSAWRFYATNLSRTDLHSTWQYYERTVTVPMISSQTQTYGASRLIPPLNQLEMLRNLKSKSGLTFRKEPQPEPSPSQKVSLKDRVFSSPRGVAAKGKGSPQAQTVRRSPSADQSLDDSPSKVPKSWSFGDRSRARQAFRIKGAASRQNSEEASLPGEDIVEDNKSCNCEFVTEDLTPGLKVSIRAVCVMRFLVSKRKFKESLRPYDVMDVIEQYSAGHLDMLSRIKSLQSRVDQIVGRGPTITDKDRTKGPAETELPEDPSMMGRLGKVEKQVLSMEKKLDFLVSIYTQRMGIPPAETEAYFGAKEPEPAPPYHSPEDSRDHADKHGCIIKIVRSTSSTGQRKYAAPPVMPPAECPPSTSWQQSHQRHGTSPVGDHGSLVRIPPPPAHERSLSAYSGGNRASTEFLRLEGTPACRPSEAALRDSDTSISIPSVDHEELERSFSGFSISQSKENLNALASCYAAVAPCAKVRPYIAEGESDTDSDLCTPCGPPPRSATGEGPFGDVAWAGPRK

- inhibition: 83.4%
SMILES: CC[C@H](C(=O)Nc1ccccc1N1CCCC1)c1ccccc1
